Data published in patent US12642809B2, “Fucosylation and immune modulation in cancer” (H. LEE MOFFITT CANCER CENTER AND RESEARCH INSTITUTE, INC., priority 2019, dated 2026).
“Also recorded” adds a separate entry of the source.

Tests used:
[1] = test system: SW1 tumors; assay: Anti-PD1 ± L-fucose, SW1 (NRAS-mutant) model in C3H mice; type: in vivo, mouse
Text: Fucosylation of HLA-DRB1 occurs on amino acid N48 (mutation to G abolishes interaction with fucose-binding AAL, lectin) (FIG. 9A). […] To further investigate the efficacy of the combination therapy of L-fucose and anti-PD1 and to see if the combination of L-fucose and anti-PD1 improved the efficacy of either agent alone, two mouse melanoma mouse models were used. The first was the NRAS-mutant melanoma mouse model. Here, C3H mice were pretreated with anti-PD1 and/or L-fucose or a L-fucose pre-dose followed by anti-PD1 antibody (FIG. 11). […] Using a BRAF-mutant melanoma model, the efficacy of the combination therapy was more pronounced. Here C57BL6 mice were challenged with SMI cells (FIG. 11). 7 days post challenge, mice received either a control, anti-PD1, L-fucose, or L-fucose and anti-PD1.
SW1 or SM1 mouse melanoma cells were injected into syngeneic C3H/HeN female or C57BL/6 male mice, respectively. After approximately 7 days, when the mice tumors reached ˜150 mm^3, the mice were either supplemented with or without 100 mM L-fucose (Biosynth (Oak Terrace, IL)) via drinking water, which was provided ad libitum. Simultaneously, the mice were injected either with PBS (control) or anti-PD1 (20 mg/kg, clone RMP1-14, Bioxcell (West Lebanon, NH)) every 3-4 days until endpoint. When the tumors reached ˜2 cm^3, the animals were sacrificed.

[2] = test system: melanoma tumors; conditions: cited from earlier work
[3] = test system: SW1 tumors; assay: CD4+/CD8+ T cell immunodepletion, SW1 model; type: in vivo, mouse
Description: Single-cell suspensions from tumor and spleen tissue were stained with Live/Dead Zombie NIR (Biolegend, (San Diego, CA)) at 1:1,000 in PBS for 20 min. Cell suspensions were spun down and stained with the following antibodies: APC anti-mouse CD3 (0.5 μg/mL, BD Biosciences (San Jose, CA)), Pacific Blue anti-mouse CD4 ([…], BD Biosciences (San Jose, CA)), BV785 anti-mouse CD8 (0.5 μg/mL, BD Biosciences (San Jose, CA)), PerCP anti-mouse CD25 ([…], BD Biosciences (San Jose, CA)), FITC anti-mouse F4/80 (0.5 μg/mL, BD Biosciences (San Jose, CA)), PeCy7 anti-mouse CD11c (0.5 μg/mL, BD Biosciences (San Jose, CA)), PE anti-mouse NK1.1 (0.5 μg/mL, BD Biosciences (San Jose, CA)), PE anti-mouse DX5 (0.5 μg/mL, BD Biosciences (San Jose, CA)), PerCP-Cy5.5 anti-mouse CD11b (0.5 μg/mL, BD Biosciences (San Jose, CA)). After staining, the cells were washed and fixed (2% formaldehyde), followed by another wash and flow cytometric analysis. The compensation controls were prepared using 0.5 μg/ml. of each antibody with beads UltraComp eBeads™, (ThermoFisher Scientific (Waltham, MA)). All samples were subject to flow cytometric analysis using a LSR Flow Cytometer (BD Biosciences (San Jose, CA)). Flow cytometric data was further analyzed using FlowJo™ analysis software (BD Biosciences (San Jose, CA)). TIL profiles were determined as a measure of TIL subpopulations per gram of tumor tissues or % of total splenocytes.
Three days prior to tumor engraftment, PBS (control) or ˜300 μg α-CD4 (20 mg/kg, for immunodepletion, GK1.5, Bioxcell (West Lebanon, NH)) or α-CD8 (20 mg/kg, for immunodepletion, 2.43, Bioxcell (West Lebanon, NH)) was administered by intraperitoneal injection into the indicated cohorts of mice. Injections of immunodepletion antibody or PBS were continued every 3-4 days until endpoint. Syngeneic recipient C3H/HeN female or C57BL/6 male mice were injected with SW1 or SMI cells, respectively. After approximately 7 days, when the tumors reached ˜150 mm^3, the mice were either supplemented with or without 100 mM L-fucose (Biosynth (Oak Terrace, IL)) via drinking water, which was provided ad libitum. When the tumors reached ˜2 cm^3, the animals were sacrificed, and the tumors were either processed for flow cytometric profiling or for histological analysis as indicated.

[4] = test system: human CD4+ T cells; assay: CD3/CD28 human CD4+ T cell activation assay / IFNγ ELISA; type: cell-based
Description: Human CD4^+ T cells were isolated from fresh PBMC using a CD4^+ T cell negative selection isolation kit (Stem Cell Technologies, (Vancouver CA)) according to manufacturer's protocols. CD4^+ T cells were cultured in the presence of DMSO, 250 μM FUTi (Millapore Sigma (St. Louis, MO)), or 250 μM L-fucose 3 days prior to activation. After 3 days, the CD4^+ T cells were activated using anti-CD3/CD28 Dynabeads (ThermoFisher Scientific (Waltham, MA)) in a 1:1 bead: CD4^+ T cell ratio. After 24 h, supernatants were collected and IFNγ ELISA was performed according to manufacturer's protocols (Biolegend (San Diego, CA)).

[5] = test system: 1205Lu melanoma cells; assay: LDH-release NK cell killing of pre-treated 1205Lu melanoma cells; type: cell-based; conditions: 250 μM pre-treatment, 8 h co-culture, immortalized and primary human NK cells
Description: The possibility that tumor fucosylation can directly activate the tumor cell-killing activity of NK cells was explored. To assay for this possibility, a lactate dehydrogenase (LDH)-release-based assay was used in which the fucosylation of LU1205 melanoma cells was modulated prior to co-culture with NK cells. Specifically, primary NK cells isolates (5A) or immortalized NK92 cell line (5B) were co-cultured with 1205Lu melanoma cells that were pre-treated with DMSO, 250 μM pan-fucosyltransferase inhibitor (FUTi), or 250 μM L-fucose for 8 hours. Non-radioactive LDH-release cytotoxicity assay was performed to measure extent of NK cell-mediated killing. […] Immunoblot analysis using AAL lectin (another fucose-binding lectin) was performed to confirm the effects of FUTi (5C) or L-fucose (5D) on 1205Lu cells (96 h treatment). (•: […]) (*: […]).

[6] = test system: MDSCs; assay: T cell proliferation in co-culture with pre-treated MDSCs; type: cell-based; conditions: CD3/CD28 activation, CellTrace Violet
Description: Shown progressive divisions of CD3/CD28-activated T cells (both CD4+ and CD8+ combined) as affected by co-culture with DMSO (control)-, FUTi (fucosyltransferase inhibitor)-, or L-fucose-pre-treated MDSCs. Undivided T cells are represented by the dark grey column. Divisions were measured by loss of CellTrace™ Violet stain. First division is represented by the light green column; second division is represented by the yellow column; and third division is represented by the navy blue column.

C[C@H](O)[C@@H](O)[C@@H](O)[C@H](O)C=O [L-fucose]
suppressed tumor growth ([1]; 100 mM L-fuc alone): 50-60%
control of tumor ([1]; NRAS-mutant model, FIG. 11, single agents): effectively control the tumor
tumor suppression compared with anti-PD1 ([1]; single agents): as much as anti-PD1; also recorded: as well as anti-PD1
tumor suppression ([2]; 100 mM fucose dietary supplementation): increased tumor suppression
block/reduction of tumor growth (and metastasis) ([2]; dietary L-fucose supplementation): > 50%
NK cells and CD4+ T cells in tumor samples ([2]; fucose supplemented mice): elevated
L-fuc-induced tumor suppression and increase in total TILs ([3]; CD4+ T cell-depleted mice): abrogated tumor suppression
increases in intratumoral NK, DC and CD8+ T cells ([3]; CD4+ T cell-depleted mice): completely blunted
L-fuc-induced tumor suppression and increase in total TILs ([3]; CD4+ T cell-depleted mice, listed as L-fuc): completely abrogated
reduced tumor growth ([3]; CD8+ T cell-depleted mice): ~50%
reduced tumor growth ([3]; control (PBS-injected) mice): ~60%
increase in intratumoral CD8+ T cells ([3]; control mice): ~10 fold
increase in intratumoral DC ([3]; control mice): ~10 fold
increase in intratumoral NK cells ([3]; control mice): ~3 fold
increase of CD4+ T cell activation (IFNγ production) ([4]; 250 μM, 3 days before CD3/CD28 activation): ~37%
IFN-γ production relative to DMSO treated controls ([4]; FIG. 13): increase
NK cell-mediated tumor-cell killing [5]: sufficient to induce the tumor-cell killing activity
effect of pre-treated MDSCs on T cell proliferation [6]: do not
